Source: ChEMBL document CHEMBL1255467, “Comparative in vitro antimicrobial activities of torezolid (TR-700), the active moiety of a new oxazolidinone, torezolid phosphate (TR-701), determination of tentative disk diffusion interpretive criteria, and quality control ranges” (2010)

Legend:
Streptococcus pneumoniae [1] = experiment: Antimicrobial activity against Streptococcus pneumoniae by broth dilution method; type: functional
Enterococcus faecalis [2] = experiment: Antimicrobial activity against vancomycin-susceptible Enterococcus faecalis by broth dilution method; type: functional
Streptococcus pneumoniae [3] = experiment: Antimicrobial activity against penicillin-intermediate Streptococcus pneumoniae by broth dilution method; type: functional
Moraxella catarrhalis = experiment: Antimicrobial activity against Moraxella catarrhalis by broth dilution method; type: functional
Staphylococcus aureus [4] = experiment: Antimicrobial activity against Staphylococcus aureus by broth dilution method; type: functional
Haemophilus influenzae [5] = experiment: Antimicrobial activity against Haemophilus influenzae by broth dilution method; type: functional
Staphylococcus aureus [6] = experiment: Antimicrobial activity against linezolid-resistant Staphylococcus aureus by broth dilution method; type: functional
Staphylococcus sp. [7] = experiment: Antimicrobial activity against methicillin-susceptible coagulase-negative Staphylococcus by broth dilution method; type: functional
Enterococcus sp. = experiment: Antimicrobial activity against Enterococcus by broth dilution method; type: functional
Haemophilus influenzae [8] = experiment: Antimicrobial activity against beta-lactamase positive Haemophilus influenzae by broth dilution method; type: functional
Staphylococcus sp. [9] = experiment: Antimicrobial activity against Staphylococcus sp. by broth dilution method; type: functional
Staphylococcus aureus [10] = experiment: Antimicrobial activity against vancomycin-nonsusceptible Staphylococcus aureus by broth dilution method; type: functional
Listeria monocytogenes = experiment: Antimicrobial activity against Listeria monocytogenes by broth dilution method; type: functional
Streptococcus pneumoniae [11] = experiment: Antimicrobial activity against penicillin-susceptible Streptococcus pneumoniae by broth dilution method; type: functional
Corynebacterium jeikeium = experiment: Antimicrobial activity against Corynebacterium jeikeium by broth dilution method; type: functional
Staphylococcus aureus [12] = experiment: Antimicrobial activity against methicillin-susceptible Staphylococcus aureus by broth dilution method; type: functional
Enterococcus faecium [13] = experiment: Antimicrobial activity against vancomycin-susceptible Enterococcus faecium by broth dilution method; type: functional
Haemophilus influenzae [14] = experiment: Antimicrobial activity against beta-lactamase negative Haemophilus influenzae by broth dilution method; type: functional
Streptococcus sp = experiment: Antimicrobial activity against streptococcal sp. by broth dilution method
Haemophilus influenzae [15] = experiment: Antimicrobial activity against ampicillin-nonsusceptible beta-lactamase negative Haemophilus influenzae by broth dilution method; type: functional
Streptococcus viridans = experiment: Antimicrobial activity against Streptococcus viridans by broth dilution method; type: functional
Enterococcus faecium [16] = experiment: Antimicrobial activity against vancomycin-resistant Enterococcus faecium by broth dilution method; type: functional
Staphylococcus aureus [17] = experiment: Antimicrobial activity against methicillin-resistant Staphylococcus aureus by broth dilution method; type: functional
Staphylococcus sp. [18] = experiment: Antimicrobial activity against methicillin-resistant coagulase-negative Staphylococcus by broth dilution method; type: functional
Streptococcus pneumoniae [19] = experiment: Antimicrobial activity against penicillin-resistant Streptococcus pneumoniae by broth dilution method; type: functional
Enterococcus faecalis [20] = experiment: Antimicrobial activity against vancomycin-resistant Enterococcus faecalis by broth dilution method; type: functional

Cn1nnc(-c2ccc(-c3ccc(N4C[C@H](CO)OC4=O)cc3F)cn2)n1 [TEDIZOLID]
> 8 µg/mL: MBC (Haemophilus influenzae [5]; Haemophilus influenzae) | MBC (Haemophilus influenzae [15]; Haemophilus influenzae)
32 µg/mL: MBC50 (Enterococcus faecalis [2]) | MBC90 (Enterococcus faecalis [2]) | MBC90 (Staphylococcus sp. [7]) | MBC50 (Enterococcus sp.) | MBC90 (Enterococcus sp.) | MIC90 (Haemophilus influenzae [8]; Haemophilus influenzae, read-out: MIC90) | MBC90 (Staphylococcus sp. [9]) | MBC90 (Staphylococcus aureus [12]) | MBC50 (Enterococcus faecium [13]) | MBC90 (Enterococcus faecium [13])
0.5 µg/mL: MBC (Streptococcus pneumoniae [1]; Streptococcus pneumoniae) | MIC50 (Enterococcus faecalis [2]; Enterococcus faecalis) | MIC90 (Enterococcus faecalis [2]; Enterococcus faecalis) | MBC (Streptococcus pneumoniae [3]; Streptococcus pneumoniae) | MIC90 (Streptococcus pneumoniae [3]; Streptococcus pneumoniae) | MIC50 (Staphylococcus aureus [4]; Staphylococcus aureus) | MIC90 (Staphylococcus aureus [4]; Staphylococcus aureus) | MIC90 (Staphylococcus sp. [7]; Staphylococcus sp.) | MIC50 (Enterococcus sp.; Enterococcus sp.) | MIC90 (Enterococcus sp.; Enterococcus sp.) | MIC90 (Staphylococcus sp. [9]; Staphylococcus sp.) | MBC50 (Staphylococcus aureus [10]) | MBC (Staphylococcus aureus [10]; Staphylococcus aureus) | MBC (Streptococcus pneumoniae [11]; Streptococcus pneumoniae) | MIC90 (Corynebacterium jeikeium) | MIC90 (Staphylococcus aureus [12]; Staphylococcus aureus) | MIC50 (Enterococcus faecium [13]; Enterococcus faecium) | MIC90 (Enterococcus faecium [13]; Enterococcus faecium) | MBC (Streptococcus sp; Streptococcus sp.) | MIC50 (Enterococcus faecium [16]) | MIC90 (Enterococcus faecium [16]) | MIC50 (Staphylococcus aureus [17]; Staphylococcus aureus) | MIC90 (Staphylococcus sp. [18]) | MIC50 (Enterococcus faecalis [20]) | MIC90 (Enterococcus faecalis [20])
16 µg/mL: MBC (Enterococcus faecalis [2]; Enterococcus faecalis) | MBC90 (Staphylococcus aureus [4]) | MIC90 (Haemophilus influenzae [5]; Haemophilus influenzae) | MBC50 (Staphylococcus sp. [7]) | MBC50 (Staphylococcus aureus [12]) | MBC (Enterococcus faecium [13]; Enterococcus faecium) | MIC90 (Haemophilus influenzae [14]; Haemophilus influenzae) | MBC90 (Streptococcus sp) | MIC90 (Haemophilus influenzae [15]; Haemophilus influenzae)
> 1 µg/mL: MBC (Enterococcus sp.; Enterococcus sp.)
4 µg/mL: MIC50 (Moraxella catarrhalis) | MIC90 (Moraxella catarrhalis) | MBC50 (Staphylococcus aureus [4]) | MIC50 (Staphylococcus aureus [6]) | MBC90 (Streptococcus pneumoniae [11])
>32 µg/mL: MBC50 (Haemophilus influenzae [5]) | MBC90 (Haemophilus influenzae [5]) | MBC50 (Haemophilus influenzae [8]) | MIC90 (Haemophilus influenzae [8]) | MBC50 (Haemophilus influenzae [14]) | MBC90 (Haemophilus influenzae [14]) | MBC50 (Haemophilus influenzae [15]) | MBC90 (Haemophilus influenzae [15])
2 µg/mL: MBC90 (Streptococcus pneumoniae [1]) | MBC50 (Staphylococcus aureus [17])
0.25 µg/mL: MIC50 (Streptococcus pneumoniae [1]; Streptococcus pneumoniae) | MIC90 (Streptococcus pneumoniae [1]; Streptococcus pneumoniae) | MIC50 (Streptococcus pneumoniae [3]; Streptococcus pneumoniae) | MIC50 (Staphylococcus sp. [7]; Staphylococcus sp.) | MIC50 (Staphylococcus sp. [9]; Staphylococcus sp.) | MIC50 (Staphylococcus aureus [10]; Staphylococcus aureus) | MIC (Listeria monocytogenes) | MIC50 (Listeria monocytogenes) | MIC90 (Listeria monocytogenes) | MIC50 (Streptococcus pneumoniae [11]; Streptococcus pneumoniae) | MIC90 (Streptococcus pneumoniae [11]; Streptococcus pneumoniae) | MIC (Corynebacterium jeikeium) | MIC50 (Corynebacterium jeikeium) | MIC (Staphylococcus aureus [12]; Staphylococcus aureus) | MIC50 (Staphylococcus aureus [12]; Staphylococcus aureus) | MIC50 (Streptococcus sp; Streptococcus sp.) | MIC90 (Streptococcus sp; Streptococcus sp.) | MIC50 (Streptococcus viridans) | MIC90 (Streptococcus viridans) | MIC50 (Staphylococcus sp. [18]) | MIC50 (Streptococcus pneumoniae [19]) | MIC90 (Streptococcus pneumoniae [19])
8 µg/mL: MIC50 (Haemophilus influenzae [5]; Haemophilus influenzae) | MIC90 (Staphylococcus aureus [6]) | MIC50 (Haemophilus influenzae [8]; Haemophilus influenzae) | MBC50 (Staphylococcus sp. [9]) | MIC50 (Haemophilus influenzae [14]; Haemophilus influenzae) | MIC50 (Haemophilus influenzae [15]; Haemophilus influenzae)
> 32 µg/mL: MBC (Haemophilus influenzae [8]; Haemophilus influenzae)
> 0.5 µg/mL: MBC (Staphylococcus aureus [4]; Staphylococcus aureus) | MBC (Staphylococcus sp. [9]; Staphylococcus sp.)
1 µg/mL: MBC50 (Streptococcus pneumoniae [1]) | MBC50 (Streptococcus pneumoniae [3]) | MBC90 (Streptococcus pneumoniae [3]) | MBC90 (Staphylococcus aureus [10]) | MIC90 (Staphylococcus aureus [10]; Staphylococcus aureus) | MBC50 (Streptococcus pneumoniae [11]) | MBC (Staphylococcus aureus [12]; Staphylococcus aureus) | MBC50 (Streptococcus sp) | MBC (Enterococcus faecium [16]) | MIC90 (Staphylococcus aureus [17]; Staphylococcus aureus) | MBC (Streptococcus pneumoniae [19])
> 16 µg/mL: MBC (Staphylococcus aureus [6]) | MBC (Haemophilus influenzae [14]; Haemophilus influenzae) | MBC (Enterococcus faecalis [20])
> 2 µg/mL: MBC (Staphylococcus sp. [7]; Staphylococcus sp.)
